Measured values reported in patent US20260274856A1, “COVALENT CEREBLON LIGANDS” (C4 THERAPEUTICS, INC., priority 2023, published 2026).
Where two headings read alike, the source gives them in different places.

Tests used:
mutant BRAF V600E = mutant BRAF V600E (Homo sapiens, UniProt P15056, V600E); test: BRAF V600E HiBiT Degradation Assay in A375.10 cells
cellular cereblon (CRBN) = cellular cereblon (CRBN) (Homo sapiens, UniProt Q96SW2); test: NanoBRET Target Engagement Assay, competition with pomalidomide tracer in 293T.116 cells; conditions: for NanoBRET TE 293T.116 CRBN 2 hours IP nM / NanoBRET TE 293T.116 CRBN 6 hours IP nM / NanoBRET TE 293T.116 CRBN 24 hours IP nM / IC50: 293T.116 cells
[1] = 24 hours, A375.10 cells, inflection point of the dose-response curve
[2] = read-out: HiBIT-Degradation A375.10 BRAF 24 hours DC50 nM, 24 hours, A375.10 cells
[3] = NanoBRET TE 293T.116 CRBN 2 hours IC50 nM, 2 hours incubation
[4] = NanoBRET TE 293T.116 CRBN 6 hours IC50 nM, 6 hours incubation
[5] = NanoBRET TE 293T.116 CRBN 24 hours IC50 nM, 24 hours incubation
[6] = read-out: NanoBRET TE 293T.116 CRBN 2 hours Emax
[7] = read-out: NanoBRET TE 293T.116 CRBN 6 hours Emax
[8] = read-out: NanoBRET TE 293T.116 CRBN 24 hours Emax

SMILES | HiBIT-Degradation A375.10 BRAF 24 hours IP nM (mutant BRAF V600E; [1]) | DC50 (mutant BRAF V600E; [2]) [nM] | Emax (mutant BRAF V600E; read-out: HiBIT-Degradation A375.10 BRAF 24 hours Emax) [%] | HiBIT-Degradation A375.10 BRAF 2 hours IP nM (mutant BRAF V600E; 2 hours, A375.10 cells, inflection point of the dose-response curve) | DC50 (mutant BRAF V600E; read-out: HIBIT-Degradation A375.10 BRAF 2 hours DC50 nM, 2 hours, A375.10 cells) [nM] | Emax (mutant BRAF V600E; read-out: HiBIT-Degradation A375.10 BRAF 2 hours Emax) [%] | NanoBRET TE 293T.116 CRBN 2 hours IP nM (cellular cereblon (CRBN); 2 hours incubation) | NanoBRET TE 293T.116 CRBN 6 hours IP nM (cellular cereblon (CRBN); 6 hours incubation) | NanoBRET TE 293T.116 CRBN 24 hours IP nM (cellular cereblon (CRBN); 24 hours incubation) | IC50 (cellular cereblon (CRBN); [3]) [nM] | IC50 (cellular cereblon (CRBN); [4]) [nM] | IC50 (cellular cereblon (CRBN); [5]) [nM] | Emax (cellular cereblon (CRBN); [6]) [%] | Emax (cellular cereblon (CRBN); [7]) [%] | Emax (cellular cereblon (CRBN); [8]) [%]
CCN(C)S(=O)(=O)Nc1ccc(F)c(Oc2ccc3ncn([C@@H]4COC5(CCN(C(=O)CN6CCC(c7ccc(OC8CCC(=O)NC8=O)cc7S(=O)(=O)F)CC6)CC5)C4)c(=O)c3c2)c1C#N (some centres unmarked) [drawing 1221] | *** (<= 1 μM is ***) | < 1000 | < 60 |  |  |  |  |  |  |  |  |  |  |  | 
CCN(C)S(=O)(=O)Nc1ccc(F)c(Oc2ccc3ncn([C@H]4COC5(CCN(C(=O)CN6CCC(c7ccc(C8CCC(=O)NC8=O)cc7OS(=O)(=O)F)CC6)CC5)C4)c(=O)c3c2)c1C#N (some centres unmarked) [drawing 1216] | *** (<= 1 μM is ***) | < 1000 |  |  |  |  |  |  |  |  |  |  |  |  | 
CCN(C)S(=O)(=O)Nc1ccc(F)c(Oc2ccc3ncn([C@H]4COC5(CCN(C(=O)CN6CCN(c7ccc(N8CCC(=O)NC8=O)cc7OS(=O)(=O)F)CC6)CC5)C4)c(=O)c3c2)c1C#N [drawing 1194] |  |  |  | * (>=10 μM is *) | > 10000 | > 95 |  |  |  |  |  |  |  |  | 
O=C1CCC(CNc2cccc(OS(=O)(=O)F)c2)C(=O)N1 (centres unmarked) [Compound A-40, 3-(((2,6-dioxopiperidin-3-yl)methyl)amino)phenyl sulfurofluoridate] |  |  |  |  |  |  | * (>=10 μM is *) | * (>=10 μM is *) | ** (<10 μM and >1 μM is **) | > 10000 | 1000 to 10000 | 1000 to 10000 | 50 to 80 | < 50 | < 50
CN(c1cccc(OS(=O)(=O)F)c1)C1CCC(=O)NC1=O (centres unmarked) [Compound A-18, 3-((2,6-dioxopiperidin-3-yl)(methyl)amino)phenyl sulfurofluoridate] |  |  |  |  |  |  | ** (<10 μM and >1 μM is **) | * (>=10 μM is *) | ** (<10 μM and >1 μM is **) | 1000 to 10000 | 1000 to 10000 | 1000 to 10000 | < 50 | < 50 | < 50
COc1ccc(OC2CCC(=O)NC2=O)cc1OS(=O)(=O)F (centres unmarked) [Compound A-27, 5-((2,6-dioxopiperidin-3-yl)oxy)-2-methoxyphenyl sulfurofluoridate] |  |  |  |  |  |  | ** (<10 μM and >1 μM is **) | ** (<10 μM and >1 μM is **) | ** (<10 μM and >1 μM is **) | 1000 to 10000 | 1000 to 10000 | > 10000 | < 50 | < 50 | 50 to 80
O=C1CCN(c2ccc(OS(=O)(=O)F)cc2)C(=O)N1 [Compound A-15, 4-(2,4-dioxotetrahydropyrimidin-1(2H)-yl)phenyl sulfurofluoridate] |  |  |  |  |  |  | ** (<10 μM and >1 μM is **) | ** (<10 μM and >1 μM is **) | ** (<10 μM and >1 μM is **) | > 10000 | > 10000 | 1000 to 10000 | 50 to 80 | 50 to 80 | < 50
COc1cc(OC2CCC(=O)NC2=O)cc(OS(=O)(=O)F)c1 (centres unmarked) [Compound A-21, 3-(3-fluorosulfonyloxy-5-methoxy-phenoxy)-2,6-dioxo-piperidine] |  |  |  |  |  |  |  | *** (<= 1 μM is ***) | ** (<10 μM and >1 μM is **) |  | < 1000 | 1000 to 10000 |  | < 50 | < 50
Cc1cc(OC2CCC(=O)NC2=O)cc(OS(=O)(=O)F)c1 (centres unmarked) [Compound A-20, 3-((2,6-dioxopiperidin-3-yl)oxy)-5-methylphenyl sulfurofluoridate] |  |  |  |  |  |  |  | *** (<= 1 μM is ***) | *** (<= 1 μM is ***) |  | < 1000 | 1000 to 10000 |  | < 50 | < 50
O=C1CCC(n2c(=O)oc3c(S(=O)(=O)F)cccc32)C(=O)N1 (centres unmarked) [Compound A-29, 3-(2,6-dioxopiperidin-3-yl)-2-oxo-2,3-dihydrobenzo[d]oxazole-7-sulfonyl fluoride] |  |  |  |  |  |  |  | *** (<= 1 μM is ***) | ** (<10 μM and >1 μM is **) |  | < 1000 | 1000 to 10000 |  | < 50 | < 50
O=C1CCN(c2ccc(N3CCNCC3)c(OS(=O)(=O)F)c2)C(=O)N1 [drawing 1142] |  |  |  |  |  |  |  | * (>=10 μM is *) |  |  | 1000 to 10000 |  |  | < 50 | 
O=C1CCC(Oc2ccc(S(=O)(=O)F)cn2)C(=O)N1 (centres unmarked) [Compound A-9, 6-((2,6-dioxopiperidin-3-yl)oxy)pyridine-3-sulfonyl fluoride] |  |  |  |  |  |  |  | ** (<10 μM and >1 μM is **) | * (>=10 μM is *) |  | 1000 to 10000 | > 10000 |  | < 50 | 50 to 80
O=C1CCN(c2ccc(N3CCNCC3)c(OS(=O)(=O)F)c2)C(=O)N1 [Compound A-39, 5-(2,4-dioxotetrahydropyrimidin-1(2H)-yl)-2-(piperazin-1-yl)phenyl sulfurofluoridate] |  |  |  |  |  |  | * (>=10 μM is *) |  |  | > 10000 |  |  | 50 to 80 |  | 
